Common to all, as to format: biochemical
One experiment has as its target C-MET (Homo sapiens, UniProt P08581). Description: Enzymatic kinase assay (ADP-GLO), C-MET. Conditions: 10 μM ATP, poly (Glu4, Tyr1) substrate, 60 min room temperature, luminescence; read-out: Enzymatic assay IC50 (nM) C-MET. On the procedure: (§1) This example illustrates an enzymatic assay to determine the inhibitory activity of exemplary compounds of Formula (I) in an aspect of the invention.
All the kinase reactions were performed in 5 μL using tyrosine kinase buffer with 0.2 μg/μL poly (Glu4, Tyr1) substrate, 10 μM ATP, serial dilution of the inhibitor, and incubated at room temperature for 60 min. After the indicated incubation times, 5 μL ADP-GLO™ reagent (Promega, Madison, Wis.) was added to the reactions and the plate was incubated at room temperature for 40 min. […] All 384-well assay plates were read using a GLOMAX™ Discover Microplate Luminometer from Promega (Madison, Wis.). To plot, analyze the data and calculate all kinase reaction biochemical values, both Microsoft Excel and Prism from GraphPad 7 Software (La Jolla, Calif.) were used.
For orientation: ADP-Glo first removes unused ATP, then detects ADP through luciferase.

In the next experiment the target is T1, AXL (Homo sapiens, UniProt P30530).
T1 sequence (P30530 26-894): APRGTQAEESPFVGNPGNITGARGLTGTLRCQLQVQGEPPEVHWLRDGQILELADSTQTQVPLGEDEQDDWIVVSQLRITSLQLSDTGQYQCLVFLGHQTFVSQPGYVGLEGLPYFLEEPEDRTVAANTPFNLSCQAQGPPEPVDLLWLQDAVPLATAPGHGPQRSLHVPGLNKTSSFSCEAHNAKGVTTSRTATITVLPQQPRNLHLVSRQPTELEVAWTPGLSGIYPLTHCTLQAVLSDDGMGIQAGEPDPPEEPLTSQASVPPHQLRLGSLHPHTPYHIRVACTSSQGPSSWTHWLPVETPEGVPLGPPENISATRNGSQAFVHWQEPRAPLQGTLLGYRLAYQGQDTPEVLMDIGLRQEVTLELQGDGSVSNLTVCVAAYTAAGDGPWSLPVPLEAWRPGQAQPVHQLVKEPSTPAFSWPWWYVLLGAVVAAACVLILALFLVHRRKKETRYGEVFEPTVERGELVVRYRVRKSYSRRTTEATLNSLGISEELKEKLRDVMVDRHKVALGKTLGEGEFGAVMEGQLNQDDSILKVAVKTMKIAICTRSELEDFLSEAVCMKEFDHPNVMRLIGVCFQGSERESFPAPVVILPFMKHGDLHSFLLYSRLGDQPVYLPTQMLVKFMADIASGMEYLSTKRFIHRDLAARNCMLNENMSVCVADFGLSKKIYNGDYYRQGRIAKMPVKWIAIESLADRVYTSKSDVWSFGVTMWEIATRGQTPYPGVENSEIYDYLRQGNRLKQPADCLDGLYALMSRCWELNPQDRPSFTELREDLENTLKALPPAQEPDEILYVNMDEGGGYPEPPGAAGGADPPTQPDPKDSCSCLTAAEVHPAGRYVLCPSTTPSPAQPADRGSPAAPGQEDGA
Put plainly: Enzymatic kinase assay (ADP-GLO), AXL. The note with it: 10 μM ATP, poly (Glu4, Tyr1) substrate, 60 min room temperature, luminescence. The protocol: as §1
(§2) All the kinase reactions were performed in 5 μL using tyrosine kinase buffer with 0.2 μg/μL poly (Glu4, Tyr1) substrate, 10 μM ATP, serial dilution of the inhibitor, and incubated at room temperature for 60 min. After the indicated incubation times, 5 μL ADP-GLO™ reagent (Promega, Madison, Wis.) was added to the reactions and the plate was incubated at room temperature for 40 min. Then, 10 μL of kinase detection reagent was added and after an incubation time of 40 min, luminescence was recorded and IC50 values were determined (Table 1). All 384-well assay plates were read using a GLOMAX™ Discover Microplate Luminometer from Promega (Madison, Wis.). To plot, analyze the data and calculate all kinase reaction biochemical values, both Microsoft Excel and Prism from GraphPad 7 Software (La Jolla, Calif.) were used.

The target in a further experiment is T2, MER (Homo sapiens, UniProt Q12866).
T2 sequence (Q12866 21-999): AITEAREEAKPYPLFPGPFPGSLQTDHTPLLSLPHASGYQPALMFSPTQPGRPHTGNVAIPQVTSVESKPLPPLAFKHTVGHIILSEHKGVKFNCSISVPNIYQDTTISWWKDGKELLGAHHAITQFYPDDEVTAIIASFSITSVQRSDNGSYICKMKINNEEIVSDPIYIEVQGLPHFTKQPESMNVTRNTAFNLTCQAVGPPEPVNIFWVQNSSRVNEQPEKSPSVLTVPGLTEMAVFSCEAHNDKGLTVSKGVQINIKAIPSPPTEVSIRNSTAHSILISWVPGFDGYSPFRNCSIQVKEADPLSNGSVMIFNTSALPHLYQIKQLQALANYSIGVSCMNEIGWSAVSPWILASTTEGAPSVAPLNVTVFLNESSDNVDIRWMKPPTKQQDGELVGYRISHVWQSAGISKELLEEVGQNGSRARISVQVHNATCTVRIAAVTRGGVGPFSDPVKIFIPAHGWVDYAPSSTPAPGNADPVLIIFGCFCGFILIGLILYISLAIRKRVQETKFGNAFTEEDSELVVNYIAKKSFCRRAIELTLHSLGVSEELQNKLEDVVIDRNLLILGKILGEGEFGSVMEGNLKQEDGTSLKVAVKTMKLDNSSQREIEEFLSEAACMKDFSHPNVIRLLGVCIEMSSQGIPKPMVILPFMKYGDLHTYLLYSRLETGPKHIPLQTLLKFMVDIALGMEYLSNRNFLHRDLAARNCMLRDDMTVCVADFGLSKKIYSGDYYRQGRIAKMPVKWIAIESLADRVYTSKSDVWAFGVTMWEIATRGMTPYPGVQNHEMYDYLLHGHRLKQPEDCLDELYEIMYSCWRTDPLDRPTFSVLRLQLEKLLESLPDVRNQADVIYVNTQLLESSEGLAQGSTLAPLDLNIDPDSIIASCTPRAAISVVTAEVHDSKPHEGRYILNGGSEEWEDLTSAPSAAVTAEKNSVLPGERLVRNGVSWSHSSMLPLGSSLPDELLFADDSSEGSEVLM
Put plainly: Enzymatic kinase assay (ADP-GLO), MER. Conditions: 10 μM ATP, poly (Glu4, Tyr1) substrate, 60 min room temperature, luminescence. On the procedure:
as §1, §2

Each structure is given as a SMILES string.

Sequence of C-MET (P08581 25-1390): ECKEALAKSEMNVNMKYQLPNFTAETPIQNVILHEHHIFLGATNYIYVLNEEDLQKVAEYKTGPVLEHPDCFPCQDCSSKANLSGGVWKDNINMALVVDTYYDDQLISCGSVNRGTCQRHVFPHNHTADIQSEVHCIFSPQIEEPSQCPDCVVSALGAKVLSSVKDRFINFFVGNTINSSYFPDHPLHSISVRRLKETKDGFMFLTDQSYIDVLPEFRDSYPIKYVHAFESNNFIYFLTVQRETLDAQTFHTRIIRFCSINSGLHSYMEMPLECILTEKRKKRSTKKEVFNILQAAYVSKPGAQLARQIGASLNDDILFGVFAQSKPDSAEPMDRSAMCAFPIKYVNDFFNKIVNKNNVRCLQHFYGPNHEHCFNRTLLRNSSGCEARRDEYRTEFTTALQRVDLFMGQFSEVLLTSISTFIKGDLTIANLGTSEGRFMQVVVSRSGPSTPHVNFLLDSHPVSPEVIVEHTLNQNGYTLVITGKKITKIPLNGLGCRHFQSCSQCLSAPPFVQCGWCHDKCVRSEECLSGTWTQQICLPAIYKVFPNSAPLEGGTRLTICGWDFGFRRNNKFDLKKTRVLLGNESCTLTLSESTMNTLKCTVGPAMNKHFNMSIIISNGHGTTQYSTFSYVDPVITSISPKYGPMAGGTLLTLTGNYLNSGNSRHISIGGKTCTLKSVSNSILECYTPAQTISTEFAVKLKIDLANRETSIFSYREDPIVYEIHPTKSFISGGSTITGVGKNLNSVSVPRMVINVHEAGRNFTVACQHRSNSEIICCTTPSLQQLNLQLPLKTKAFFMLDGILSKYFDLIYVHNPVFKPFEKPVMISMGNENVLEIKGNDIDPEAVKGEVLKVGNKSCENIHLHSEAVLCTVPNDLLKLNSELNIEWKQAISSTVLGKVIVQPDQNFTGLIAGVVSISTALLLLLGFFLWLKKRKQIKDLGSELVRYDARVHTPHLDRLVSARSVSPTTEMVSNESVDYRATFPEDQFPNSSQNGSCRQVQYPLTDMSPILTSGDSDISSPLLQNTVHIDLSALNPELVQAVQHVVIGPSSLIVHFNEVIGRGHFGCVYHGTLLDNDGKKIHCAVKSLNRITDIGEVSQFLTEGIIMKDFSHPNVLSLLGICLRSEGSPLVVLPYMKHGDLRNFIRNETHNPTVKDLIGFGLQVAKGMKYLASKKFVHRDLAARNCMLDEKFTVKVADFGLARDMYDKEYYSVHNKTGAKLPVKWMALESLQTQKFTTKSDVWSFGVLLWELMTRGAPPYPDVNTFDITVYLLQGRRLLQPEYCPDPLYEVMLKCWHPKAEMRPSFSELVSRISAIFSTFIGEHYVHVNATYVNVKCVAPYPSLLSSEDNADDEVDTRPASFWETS

In general, IC50 refers to the midpoint of a concentration-inhibition curve. `Nc1nccc(Oc2ccc(NC(=O)c3ccnn(-c4ccc(F)cc4)c3=O)cc2F)c1Cl` [Example 1, N-(4-(2-amino-3-chloropyridin-4-yloxy)-3-fluorophenyl)-2-(4-fluorophenyl)-3-oxo-2,3-dihydropyridazine-4-carboxamide]: the IC50 at C-MET, against AXL and on MER was below 1000 nM in each case.

`Nc1nccc(Oc2ccc(NC(=O)c3ccnn(-c4ccc(F)cc4)c3=O)cc2F)c1C#CC(=O)N1CCOCC1` [Example 2, N-(4-(2-amino-3-(3-morpholino-3-oxoprop-1-ynyl)pyridin-4-yloxy)-3-fluorophenyl)-2-(4-fluorophenyl)-3-oxo-2,3-dihydropyridazine-4-carboxamide]: the results for the concentration for half-maximal inhibition (IC50) on C-MET, on AXL and at MER were below 1000 nM, below 100 nM and below 10 nM, respectively.

Regarding `Nc1nccc(Oc2ccc(NC(=O)c3ccnn(-c4ccc(F)cc4)c3=O)cc2F)c1C#CCN1CCOCC1` [Example 3, N-(4-(2-amino-3-(morpholinoprop-1-ynyl)pyridine-4-yloxy)-3-fluorophenyl)-2-(4-fluorophenyl)-3-oxo-2,3-dihydropyridazine-4-carboxamide], the IC50 on C-MET, against AXL and at MER was below 1000 nM throughout.

Consider `Nc1nccc(Oc2ccc(NC(=O)c3ccnn(-c4ccc(F)cc4)c3=O)cc2F)c1/C=C/C(=O)N1CCOCC1` [Example 4, (E)-N-(4-(2-amino-3-(3-morpholino-3-oxoprop-1-enyl)pyridine-4-yloxy)-3-fluorophenyl)-2-(4-fluorophenyl)-3-oxo-2,3-dihydropyridazine-4-carboxamide], for which the values for the IC50 on C-MET, at AXL and against MER were below 100 nM, below 1000 nM and below 100 nM, respectively.

Turning to `N#Cc1c(Oc2ccc(NC(=O)c3ccnn(-c4ccc(F)cc4)c3=O)cc2F)ccnc1N` [Example 5], the IC50 on C-MET was below 10 nM; against AXL, below 100 nM; against MER it was below 1000 nM.

In the case of `Nc1nccc(Oc2ccc(NC(=O)c3ccnn(-c4ccc(F)cc4)c3=O)cc2F)c1C#CCN1CCNCC1` [Example 6, N-(4-(2-amino-3-(3-(piperazin-1-yl)prop-1-ynyl)pyridin-4-yloxy)-3-fluorophenyl)-2-(4-fluorophenyl)-3-oxo-2,3-dihydropyridazine-4-carboxamide], the IC50 at C-MET, at AXL and at MER was below 1000 nM throughout.

Turning to `Nc1nccc(Oc2ccc(NC(=O)c3ccnn(-c4ccc(F)cc4)c3=O)cc2F)c1/C=C/C(=O)N1CCNCC1` [Example 7, (E)-N-(4-(2-amino-3-(3-oxo-3-(piperazin-1-yl)prop-1-enyl)pyridin-4-yloxy)-3-fluorophenyl)-2-(4-fluorophenyl)-3-oxo-2,3-dihydropyridazine-4-carboxamide], the IC50 at C-MET, against AXL and against MER was below 1000 nM throughout.

For the compound `Nc1nccc(Oc2ccc(NC(=O)c3ccnn(-c4ccc(F)cc4)c3=O)cc2F)c1C#CCCN1CCOCC1` [Example 8, N-(4-(2-amino-3-(4-morpholinobut-1-ynyl)pyridin-4-yloxy)-3-fluorophenyl)-2-(4-fluorophenyl)-3-oxo-2,3-dihydropyridazine-4-carboxamide], the IC50 on C-MET was below 1000 nM; against AXL, below 100 nM; on MER, below 1000 nM.

Turning to `Nc1nccc(Oc2ccc(NC(=O)c3ccnn(-c4ccc(F)cc4)c3=O)cc2F)c1C#CC(=O)N1CCC(O)CC1` [Example 9, N-(4-(2-amino-3-(3-(4-hydroxypiperidin-1-yl)-3-oxoprop-1-ynyl)pyridin-4-yloxy)-3-fluorophenyl)-2-(4-fluorophenyl)-3-oxo-2,3-dihydropyridazine-4-carboxamide], the results for the IC50 at C-MET, on AXL and against MER were below 100 nM, below 10 nM and below 100 nM, respectively.

As for `COC1CCN(C(=O)C#Cc2c(Oc3ccc(NC(=O)c4ccnn(-c5ccc(F)cc5)c4=O)cc3F)ccnc2N)CC1` [Example 10, N-(4-(2-amino-3-(3-(4-methoxypiperidin-1-yl)-3-oxoprop-1-ynyl)pyridin-4-yloxy)-3-fluorophenyl)-2-(4-fluorophenyl)-3-oxo-2,3-dihydropyridazine-4-carboxamide], the results for the IC50 on C-MET, against AXL and on MER were below 1000 nM, below 100 nM and below 1000 nM, respectively.

With `COCCONC(=O)C#Cc1c(Oc2ccc(NC(=O)c3ccnn(-c4ccc(F)cc4)c3=O)cc2F)ccnc1N` [Example 11, N-(4-(2-amino-3-(3-(2-methoxyethoxyamino)-3-oxoprop-1-ynyl)pyridin-4-yloxy)-3-fluorophenyl)-2-(4-fluorophenyl)-3-oxo-2,3-dihydropyridazine-4-carboxamide], the IC50 at C-MET is below 10 nM; against AXL it was below 100 nM; against MER it was below 1000 nM.

For the compound `COCCON(C)C(=O)C#Cc1c(Oc2ccc(NC(=O)c3ccnn(-c4ccc(F)cc4)c3=O)cc2F)ccnc1N` [Example 12, N-(4-(2-amino-3-(3-((2-methoxyethoxy)(methyl)amino)-3-oxoprop-1-ynyl)pyridin-4-yloxy)-3-fluorophenyl)-2-(4-fluorophenyl)-3-oxo-2,3-dihydropyridazine-4-carboxamide], the IC50 at C-MET, against AXL and against MER was below 100 nM in each case.

For `Nc1nccc(Oc2ccc(NC(=O)c3ccnn(-c4ccc(F)cc4)c3=O)cc2F)c1C#CC(=O)N1CCNCC1` [Example 13, N-(4-(2-amino-3-(3-oxo-3-(piperazin-1-yl)prop-1-ynyl)pyridin-4-yloxy)-3-fluorophenyl)-2-(4-fluorophenyl)-3-oxo-2,3-dihydropyridazine-4-carboxamide], the IC50 at C-MET, at AXL and against MER was below 100 nM each time.

As to `COCCN1CCN(C(=O)C#Cc2c(Oc3ccc(NC(=O)c4ccnn(-c5ccc(F)cc5)c4=O)cc3F)ccnc2N)CC1` [Example 14, N-(4-(2-amino-3-(3-(4-(2-methoxyethyl)piperazin-1-yl)-3-oxoprop-1-ynyl)pyridin-4-yloxy)-3-fluorophenyl)-2-(4-fluorophenyl)-3-oxo-2,3-dihydropyridazine-4-carboxamide], the IC50 on C-MET, at AXL and against MER was below 10 nM throughout.

For the origin of these results see patent US20230257364A1, “PYRIDAZINONE-BASED COMPOUNDS AS AXL, C-MET, AND MER INHIBITORS AND METHODS OF USE THEREOF” (CMG Pharmaceutical Co., Ltd., priority 2022, published 2023).
